PubChem BioAssay (NCI)
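48-hour exposure; five concentrations; linearly interpolated endpoints. Abbreviation: GI50, concentration required for 50% inhibition of growth. Definition used: TGI = concentration required for complete inhibition of growth.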

Tests used:
Test in all cases: growth of human tumour cells (NCI), 48 h
NCI-H460 lung = system: NCI-H460 lung
NCI-H23 lung = system: NCI-H23 lung
T-47D breast = system: T-47D breast
K-562 leukemia = system: K-562 leukemia
MOLT-4 leukemia = system: MOLT-4 leukemia
MCF7 breast = system: MCF7 breast
786-0 renal = system: 786-0 renal
NCI/ADR-RES ovarian = system: NCI/ADR-RES ovarian
CCRF-CEM leukemia = system: CCRF-CEM leukemia

SMILES	TGI (NCI-H460 lung)	TGI (NCI-H23 lung)	TGI (T-47D breast)	TGI (K-562 leukemia)	TGI (MOLT-4 leukemia)	TGI (MCF7 breast)	TGI (786-0 renal)	TGI (NCI/ADR-RES ovarian)	TGI (CCRF-CEM leukemia)	GI50 (T-47D breast)	GI50 (MCF7 breast)	GI50 (NCI/ADR-RES ovarian)	GI50 (CCRF-CEM leukemia)
CCOC(=O)c1cc(C(=O)c2ccccc2)n2nc(-c3ccc(Cl)cc3)ccc12	50.9 µM	> 100 µM	92.3 µM	> 100 µM	> 100 µM	53.2 µM	33 µM	81.8 µM	> 100 µM	–	–	–	–
Clc1ccc(Cc2nc3ccc(CCN4CCN(c5ccccc5)CC4)cc3[nH]2)cc1	27.8 µM	32.5 µM	33.6 µM	30.6 µM	40.6 µM	37.6 µM	23.1 µM	51.6 µM	> 100 µM	–	–	–	–
CC1(C)N=C(C(N)=O)c2ncn(CCO)c2N1	> 100 µM	> 100 µM	> 100 µM	> 100 µM	–	> 100 µM	> 100 µM	> 100 µM	> 100 µM	–	–	–	–
COc1cc2c(c(OC)c1OC)-c1ccc(SC)c(=O)cc1[C@@H](OC(C)=O)CC2	> 100 µM	0.194 µM	> 100 µM	> 100 µM	> 100 µM	> 100 µM	> 100 µM	–	0.0312 µM	–	–	–	–
COc1ccc(O[C@H](COCc2ccccc2)C[C@@H]2COC(C)(C)O2)cc1	> 100 µM	> 100 µM	–	> 100 µM	> 100 µM	> 100 µM	> 100 µM	> 100 µM	> 100 µM	–	–	–	–
COc1ccc2cc1Oc1ccc(cc1)C(Sc1ccccc1)CCOC(=O)CC2 (stereo unspecified)	–	> 100 µM	> 100 µM	> 100 µM	> 100 µM	> 100 µM	> 100 µM	> 100 µM	> 100 µM	–	–	–	–
O=C(Nc1nc2c(=O)[nH]cnc2s1)c1ccccc1	> 100 µM	> 100 µM	–	> 100 µM	–	> 100 µM	> 100 µM	> 100 µM	> 100 µM	–	–	–	–
O=C(N=C1SCCN1C(=O)C(C(F)(F)F)C(F)(F)F)C(C(F)(F)F)C(F)(F)F	> 100 µM	> 100 µM	–	> 100 µM	> 100 µM	> 100 µM	> 100 µM	> 100 µM	> 100 µM	–	–	–	–
CC(C)CCC[C@@H](C)[C@H]1CCC2C3CC=C4C[C@@H](Oc5c6ccccc6nc6ccccc56)CCC4C3CCC21 (stereo partly specified)	> 50 µM	> 50 µM	> 50 µM	> 50 µM	–	–	> 50 µM	> 50 µM	> 50 µM	–	–	–	–
COc1ccc(N2C(=Nc3ccccc3)SC(=N/S(=O)(=O)c3ccccc3)/C2=N\S(=O)(=O)c2ccccc2)cc1	26.2 µM	27.4 µM	20.1 µM	44.1 µM	45.6 µM	40.8 µM	64.8 µM	–	46 µM	–	–	–	–
Cc1ccnc2[nH]c(-c3cccc(Cl)c3)cc(=O)c12	> 100 µM	> 100 µM	> 100 µM	–	> 50 µM	> 100 µM	> 100 µM	> 100 µM	> 100 µM	–	–	–	–
CC(=O)[C@@H]1CCC=C2CC[C@]3(C)[C@@H](CC[C@@H]4[C@@]5(C)CCCNC(C)(C)[C@@H]5CC[C@]43C)[C@H]21	–	–	3.47 µM	–	–	2.92 µM	–	3.8 µM	5.63 µM	1.72 µM	1.37 µM	1.98 µM	2.27 µM
